Results: article PMC4307180, “Overcoming myelosuppression due to synthetic lethal toxicity for FLT3-targeted acute myeloid leukemia therapy” (eLife, 2014)
Entries after “also recorded” stand apart in the source; their conditions may differ. Like-named read-outs stand apart in the source and are kept apart here.

Experiments:
AML patients [1] = tested on: AML patients; parameters: method as in Cortes et al., 2013; settings: monotherapy, Phase II trial; ref Cortes et al., 2013; cited from earlier work
KIT phosphorylation = tested on: KIT phosphorylation; parameters: method as in Griswold et al., 2004; settings: ref Griswold et al., 2004; cited from earlier work
[2] = tested on: MV4;11 cells (FLT3-ITD homozygous); assay: Cell proliferation/viability assay, MV4;11; format: cell-based; settings: Homo sapiens, 48 hr, ± SEM
Protocol: (§1) Exponentially growing cells (5 × 10^3 cells per well) were plated in each well of a 96-well plate with 0.1 ml of RPMI 1640 + 10% (vol/vol) FCS containing the appropriate concentration of drug in triplicate, and cell viability was assessed after 48 hr as previously described ([Smith et al., 2012]). […] Log10-scale transformation of ratios, followed by conditional formatting using xcel spreadsheet software yielded the colored diagrams shown.

HMC1.1 cells (KIT V560G) = assay: Cell proliferation/viability assay, HMC1.1; format: cell-based, human; settings: Homo sapiens; Kit V560 G, 48 hr, ± SEM
Protocol: as §1

HMC1.1 cells = assay: Caspase-3 activation (apoptosis), HMC1.1; format: cell-based, human; settings: 48 hr, up to 2,500 nM
Protocol: Cells were fixed with 4% (vol/vol) paraformaldehyde (Electron Microscopy Sciences) and permeabilized with 100% (vol/vol) methanol (Electron Microscopy Sciences, Hatfield, PA) followed by staining with a FITC-conjugated antiactive caspase-3 antibody (BD Pharmingen, San Jose, CA). Cells were run on a BD LSRFortessa cell analyzer, and data were analyzed using FlowJo (Tree Star Inc., Ashland, OR). Percentage of live cells was determined by negative staining for activated caspase-3 (see Figure 2B,C).

p-KIT in HMC1.1 cells = target: T1, p-KIT in HMC1.1 cells (Homo sapiens, UniProt P10721, V560G); assay: Immunoblot of p-KIT in HMC1.1; format: cell-based; settings: immunoblot, 90-min incubation
T1 construct: endogenous in cells; host or cells: HMC1.1
T1 sequence (P10721 26-976 V560G): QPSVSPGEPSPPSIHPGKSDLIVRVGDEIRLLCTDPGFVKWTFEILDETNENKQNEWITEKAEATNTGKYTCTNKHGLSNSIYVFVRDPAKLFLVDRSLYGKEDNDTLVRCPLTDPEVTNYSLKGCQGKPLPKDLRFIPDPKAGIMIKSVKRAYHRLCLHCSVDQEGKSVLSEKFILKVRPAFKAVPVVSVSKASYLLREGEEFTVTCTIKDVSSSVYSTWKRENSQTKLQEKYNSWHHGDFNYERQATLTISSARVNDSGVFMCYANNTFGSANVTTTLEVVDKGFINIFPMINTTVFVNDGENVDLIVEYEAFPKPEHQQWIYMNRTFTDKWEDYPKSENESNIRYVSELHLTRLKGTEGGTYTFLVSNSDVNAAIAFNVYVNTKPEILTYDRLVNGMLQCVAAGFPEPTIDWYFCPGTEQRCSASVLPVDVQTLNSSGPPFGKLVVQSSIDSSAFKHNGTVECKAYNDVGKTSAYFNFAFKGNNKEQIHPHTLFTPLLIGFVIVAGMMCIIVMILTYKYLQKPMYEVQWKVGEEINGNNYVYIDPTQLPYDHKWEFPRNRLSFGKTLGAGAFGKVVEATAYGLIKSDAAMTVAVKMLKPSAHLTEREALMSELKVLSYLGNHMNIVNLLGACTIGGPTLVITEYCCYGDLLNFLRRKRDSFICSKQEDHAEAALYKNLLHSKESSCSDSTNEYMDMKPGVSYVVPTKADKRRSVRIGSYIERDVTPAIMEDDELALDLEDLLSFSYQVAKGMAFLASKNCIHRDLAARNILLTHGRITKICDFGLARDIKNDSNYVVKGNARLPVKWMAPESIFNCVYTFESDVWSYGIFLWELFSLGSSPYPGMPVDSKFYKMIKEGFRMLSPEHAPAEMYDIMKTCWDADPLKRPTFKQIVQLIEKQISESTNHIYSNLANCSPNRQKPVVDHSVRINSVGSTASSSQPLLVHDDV

[3] = tested on: primary patient FLT3-ITD+ AML circulating blasts; assay: Colony-forming assay, primary patient FLT3-ITD+ AML blasts; format: cell-based, human; settings: at 1,000 nM; ca. 1,200 CFUs in DMSO plates
From the text: (§2) Primary AML blood samples and/or marrow aspirates were obtained on an IRB-approved protocol at the University of California, San Francisco. Informed consent was obtained in accordance with the Declaration of Helsinki. Mononuclear cells were purified by density centrifugation (Ficoll–Paque Plus, GE Healthsciences) before cryopreservation in 10% (vol/vol) DMSO or FCS (primary ITD and D835-mutant assays, Figure 3A–C) or immediate use in assays (Normal BM and SPB, Figure 3D–F). Normal BM and stimulated peripheral blood (SPB) samples were collected from donors at the UCSF oncology/hematology division. Cells were then suspended in MethoCult methylcellulose (Stem Cell Technologies, product no. H4435 Enriched, Canada) in 15-ml Falcon tubes, vigorously vortexed, bubbles settled over 10 min. Triplicates then plated via blunt-nosed syringe (1.1 ml each) into 3-cm dishes, avoiding bubble generation, and each dish placed in a larger 10-cm dish with water trough in an incubator (37°C, 5% CO2) for 13–14 days. Colonies were counted individually using traditional microscopy. CFU and BFU types reported separately (CFU-GEMM colonies counted as one of each).

[4] = tested on: primary patient FLT3 D835 AML circulating blasts; assay: Colony-forming assay, primary patient FLT3-D835 AML blasts; format: cell-based, human; settings: at 1,000 nM; ca. 120 for DMSO plates
From the text: as §2

[5] = tested on: normal bone marrow (BM) and stimulated peripheral blood (SPB) hematopoietic progenitors; assay: Colony-forming assay, normal BM and stimulated peripheral blood; format: cell-based, human
From the text: as §2, with “each). Results shown for FLT3 ITD primary blasts (Figure 3B) are a combination of leukemic blast colonies and BFU colonies.” for “each).”

zebrafish embryos = assay: Zebrafish embryonic development / WT morphology; format: in vivo, Danio rerio (zebrafish); settings: 3 dpf, drug from 6 hpf
Protocol: (§3) Figure 4. […] (N–P) Three categories of mpo transcription (N, normal; O, intermediate; P, severe) were defined based on the WISH results (three experiments). […] Scale bar equals 500 μm. Blue arrows indicate the pericardial edema, green arrows indicate tail shortening and curving, and red arrows indicate the FLT3-ITD AML mpo+ myeloid cells expansion. […] For all experiments: Zebrafish embryos were collected and kept in standard E3 medium at 28°C. Different concentrations of either drug were added to the E3 medium from 6 hr post fertilization (hpf) to 3 days post fertilization (dpf). Embryos treated with DMSO or 10 μM drug from 6 to 30 hpf were collected for mpo whole mount in situ hybridization (WISH) analysis. […] plasmid DNA containing FLT3/ITD sequence was microinjected into one-cell stage embryos, and the uninjected embryos were used as control. FLT3/ITD-injected embryos were treated with DMSO or 10 μM drug from 6 to 30 hpf.
(§4) Wild-type (WT) zebrafish were maintained under standard conditions, and embryos were staged as described ([He et al., 2014]). The study was approved by the Committee of the Use of Live Animals for Teaching and Research in The University of Hong Kong.

[6] = tested on: mpo+ myeloid cells in zebrafish embryos; assay: Zebrafish normal myelopoiesis, mpo WISH in posterior blood island; format: in vivo, Danio rerio (zebrafish); settings: 10 μM, 6 to 30 hpf, read at 30 hpf, vs DMSO
Protocol: as §3, §4

[7] = tested on: FLT3/ITD-injected zebrafish embryos; assay: Zebrafish FLT3/ITD-induced mpo+ myeloid cell expansion; format: in vivo, Danio rerio (zebrafish); settings: 10 μM, 6 to 30 hpf, read at 30 hpf
Protocol: as §3, §4

Ba/F3 Parental + IL3 = assay: Ba/F3 cell viability, Parental + IL3; format: cell-based; settings: Mus musculus, BaF3; Ba/F3, 48 hr, ± SEM
Protocol: (§5) Stable Ba/F3 lines were generated by retroviral spinfection with the appropriate mutated plasmid as previously described ([Smith et al., 2012]).
as §1

Ba/F3 FLT3 ITD + D835F = assay: Ba/F3 cell viability, FLT3 ITD + D835F; format: cell-based; settings: Mus musculus, Ba/F3, 48 hr, ± SEM
Protocol: as §5, §1
(§6) Mutations isolated in the screen were engineered into pMSCVpuroFLT3–ITD by QuikChange mutagenesis (Stratagene, La Jolla, CA) as previously described ([Smith et al., 2012]).

Ba/F3 FLT3 ITD + A848P = assay: Ba/F3 cell viability, FLT3 ITD + A848P; format: cell-based; settings: Mus musculus, Ba/F3, 48 hr, ± SEM
Protocol: as §5, §1, §6

AML patients [8] = tested on: AML patients; parameters: method as in Strati et al., 2014; settings: ref Strati et al., 2014, cited from earlier work
purified FLT3 WT = target: T2, purified FLT3 WT (Homo sapiens, UniProt P36888); assay: Radiolabeled purified kinase assay (Figure 1B)
T2 sequence (P36888 27-993): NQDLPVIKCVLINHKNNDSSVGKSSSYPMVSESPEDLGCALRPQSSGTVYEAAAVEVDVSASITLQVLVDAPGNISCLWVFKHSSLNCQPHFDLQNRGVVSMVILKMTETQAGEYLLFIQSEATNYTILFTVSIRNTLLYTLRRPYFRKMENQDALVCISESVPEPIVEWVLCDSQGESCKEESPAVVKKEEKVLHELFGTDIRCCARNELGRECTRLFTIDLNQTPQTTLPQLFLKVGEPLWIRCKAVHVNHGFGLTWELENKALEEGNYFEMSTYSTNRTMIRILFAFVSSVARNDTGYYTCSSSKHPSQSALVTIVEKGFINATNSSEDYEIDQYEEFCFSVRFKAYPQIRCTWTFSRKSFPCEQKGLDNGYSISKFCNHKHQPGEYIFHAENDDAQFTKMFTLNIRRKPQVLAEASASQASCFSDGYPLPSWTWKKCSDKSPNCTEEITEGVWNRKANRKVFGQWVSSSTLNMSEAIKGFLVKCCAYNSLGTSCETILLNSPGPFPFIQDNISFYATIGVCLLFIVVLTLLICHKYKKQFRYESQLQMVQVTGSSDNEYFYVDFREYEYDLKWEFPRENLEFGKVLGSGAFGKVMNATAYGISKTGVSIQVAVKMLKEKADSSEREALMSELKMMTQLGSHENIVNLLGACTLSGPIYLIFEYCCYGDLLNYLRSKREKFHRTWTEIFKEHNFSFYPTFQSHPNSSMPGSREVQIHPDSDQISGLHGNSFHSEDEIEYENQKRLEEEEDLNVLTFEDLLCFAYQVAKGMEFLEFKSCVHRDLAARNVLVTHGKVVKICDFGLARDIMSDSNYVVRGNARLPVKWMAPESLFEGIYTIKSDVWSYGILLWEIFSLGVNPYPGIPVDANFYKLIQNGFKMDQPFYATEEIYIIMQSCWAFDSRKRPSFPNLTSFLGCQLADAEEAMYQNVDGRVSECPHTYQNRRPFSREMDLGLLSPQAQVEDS

FLT3 = target: T3, FLT3 (Homo sapiens, UniProt P36888); parameters: purchased Reaction Biology Corporation (Malvern, PA); method as in Lopez et al., 2013; settings: at 1 µM, panel of 319 kinases; ref Lopez et al., 2013; cited from earlier work
T3 sequence (P36888 27-993): T2 sequence (P36888 27-993)

KIT = KIT (Homo sapiens, UniProt P10721); parameters: purchased Reaction Biology Corporation (Malvern, PA); method as in Lopez et al., 2013; settings: at 1 µM, panel of 319 kinases; ref Lopez et al., 2013; cited from earlier work
KIT, sequence (P10721 26-976): as the sequence (P10721 26-976 V560G) above, with G535V counted along it

CSF1R = CSF1R (Homo sapiens, UniProt P07333); parameters: purchased Reaction Biology Corporation (Malvern, PA); method as in Lopez et al., 2013; settings: at 1 µM, panel of 319 kinases; ref Lopez et al., 2013; cited from earlier work
CSF1R, sequence (P07333 20-972): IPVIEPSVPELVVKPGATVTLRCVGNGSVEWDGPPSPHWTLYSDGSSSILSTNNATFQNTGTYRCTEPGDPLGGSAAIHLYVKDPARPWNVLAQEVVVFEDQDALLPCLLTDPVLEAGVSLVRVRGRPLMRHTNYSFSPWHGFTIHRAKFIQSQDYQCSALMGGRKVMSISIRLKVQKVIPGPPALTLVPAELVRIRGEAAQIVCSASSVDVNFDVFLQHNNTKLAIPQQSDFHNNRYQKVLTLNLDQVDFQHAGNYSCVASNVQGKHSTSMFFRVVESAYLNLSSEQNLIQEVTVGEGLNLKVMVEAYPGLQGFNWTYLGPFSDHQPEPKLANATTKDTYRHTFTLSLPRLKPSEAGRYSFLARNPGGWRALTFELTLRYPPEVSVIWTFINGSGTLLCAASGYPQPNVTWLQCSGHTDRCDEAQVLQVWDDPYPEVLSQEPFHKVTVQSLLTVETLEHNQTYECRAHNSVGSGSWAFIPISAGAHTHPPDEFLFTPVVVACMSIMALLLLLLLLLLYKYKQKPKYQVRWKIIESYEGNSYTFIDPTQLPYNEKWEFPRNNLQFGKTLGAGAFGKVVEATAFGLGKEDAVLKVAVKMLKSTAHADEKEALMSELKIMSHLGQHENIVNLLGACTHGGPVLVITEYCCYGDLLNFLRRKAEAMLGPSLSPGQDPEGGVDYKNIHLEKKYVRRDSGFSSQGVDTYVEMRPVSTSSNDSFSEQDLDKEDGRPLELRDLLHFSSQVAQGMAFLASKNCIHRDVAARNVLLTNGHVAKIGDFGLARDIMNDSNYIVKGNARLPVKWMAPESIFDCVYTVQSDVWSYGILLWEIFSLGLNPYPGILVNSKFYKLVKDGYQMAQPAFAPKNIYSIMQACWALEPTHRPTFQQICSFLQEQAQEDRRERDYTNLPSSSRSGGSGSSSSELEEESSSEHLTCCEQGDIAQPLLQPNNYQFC

PDGFRα = PDGFRα (Homo sapiens, UniProt P16234); parameters: purchased Reaction Biology Corporation (Malvern, PA); method as in Lopez et al., 2013; settings: at 1 µM, panel of 319 kinases; ref Lopez et al., 2013; cited from earlier work
PDGFRα, sequence (P16234 24-1089): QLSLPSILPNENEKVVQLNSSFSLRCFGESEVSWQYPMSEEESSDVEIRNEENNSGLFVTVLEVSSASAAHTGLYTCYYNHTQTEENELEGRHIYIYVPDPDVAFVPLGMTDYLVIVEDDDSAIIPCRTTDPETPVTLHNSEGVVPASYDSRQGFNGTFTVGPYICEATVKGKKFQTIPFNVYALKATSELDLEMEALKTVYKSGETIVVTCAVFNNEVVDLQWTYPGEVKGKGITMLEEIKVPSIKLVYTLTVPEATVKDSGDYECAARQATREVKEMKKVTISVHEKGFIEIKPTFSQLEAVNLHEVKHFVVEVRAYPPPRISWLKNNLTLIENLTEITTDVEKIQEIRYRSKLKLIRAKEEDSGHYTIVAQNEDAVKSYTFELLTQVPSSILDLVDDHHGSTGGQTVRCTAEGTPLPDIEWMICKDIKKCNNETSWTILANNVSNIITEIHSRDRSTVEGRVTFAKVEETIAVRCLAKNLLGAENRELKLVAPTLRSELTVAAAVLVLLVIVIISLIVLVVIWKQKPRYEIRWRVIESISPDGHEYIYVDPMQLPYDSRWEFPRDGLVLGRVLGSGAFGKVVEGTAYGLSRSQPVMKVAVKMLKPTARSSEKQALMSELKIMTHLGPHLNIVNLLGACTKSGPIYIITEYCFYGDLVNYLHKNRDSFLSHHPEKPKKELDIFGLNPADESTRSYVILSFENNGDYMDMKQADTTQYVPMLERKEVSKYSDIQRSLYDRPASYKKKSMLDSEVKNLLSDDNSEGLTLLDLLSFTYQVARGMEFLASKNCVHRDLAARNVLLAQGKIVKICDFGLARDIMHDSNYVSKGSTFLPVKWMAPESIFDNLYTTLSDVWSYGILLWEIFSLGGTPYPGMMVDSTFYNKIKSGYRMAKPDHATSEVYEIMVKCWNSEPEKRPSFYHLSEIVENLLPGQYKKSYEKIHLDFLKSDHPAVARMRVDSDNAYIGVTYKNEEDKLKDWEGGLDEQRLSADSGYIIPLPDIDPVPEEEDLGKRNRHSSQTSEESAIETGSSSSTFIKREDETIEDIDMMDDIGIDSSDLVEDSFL

PDGFRβ = PDGFRβ (Homo sapiens, UniProt P09619); parameters: purchased Reaction Biology Corporation (Malvern, PA); method as in Lopez et al., 2013; settings: at 1 µM, panel of 319 kinases; ref Lopez et al., 2013; cited from earlier work
PDGFRβ, sequence (P09619 33-1106): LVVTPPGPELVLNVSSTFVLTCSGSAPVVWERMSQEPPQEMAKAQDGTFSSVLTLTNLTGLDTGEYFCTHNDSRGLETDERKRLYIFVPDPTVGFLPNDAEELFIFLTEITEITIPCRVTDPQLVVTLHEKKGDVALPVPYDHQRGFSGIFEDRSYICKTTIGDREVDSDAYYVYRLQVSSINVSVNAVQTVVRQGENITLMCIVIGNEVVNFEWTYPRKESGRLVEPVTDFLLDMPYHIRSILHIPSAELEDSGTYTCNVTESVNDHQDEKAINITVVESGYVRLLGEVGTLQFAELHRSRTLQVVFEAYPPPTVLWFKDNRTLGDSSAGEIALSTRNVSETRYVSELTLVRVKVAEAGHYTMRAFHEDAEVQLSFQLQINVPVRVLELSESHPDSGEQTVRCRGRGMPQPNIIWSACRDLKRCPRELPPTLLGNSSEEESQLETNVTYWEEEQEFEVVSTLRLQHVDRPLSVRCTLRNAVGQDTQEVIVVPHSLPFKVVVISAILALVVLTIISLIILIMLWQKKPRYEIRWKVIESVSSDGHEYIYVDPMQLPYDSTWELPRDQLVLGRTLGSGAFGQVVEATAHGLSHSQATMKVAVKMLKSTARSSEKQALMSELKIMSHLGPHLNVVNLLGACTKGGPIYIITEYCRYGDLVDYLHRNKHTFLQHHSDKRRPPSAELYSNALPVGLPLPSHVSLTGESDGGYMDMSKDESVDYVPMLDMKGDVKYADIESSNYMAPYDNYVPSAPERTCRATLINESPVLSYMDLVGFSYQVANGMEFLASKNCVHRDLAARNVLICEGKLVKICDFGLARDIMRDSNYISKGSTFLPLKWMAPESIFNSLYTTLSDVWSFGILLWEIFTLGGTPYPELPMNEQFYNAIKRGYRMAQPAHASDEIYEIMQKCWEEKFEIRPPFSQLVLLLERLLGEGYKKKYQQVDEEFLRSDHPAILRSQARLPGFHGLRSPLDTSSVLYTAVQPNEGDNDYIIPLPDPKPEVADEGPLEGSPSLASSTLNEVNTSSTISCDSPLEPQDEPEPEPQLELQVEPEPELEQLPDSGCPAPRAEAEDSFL

## CC(C)(C)c1cc(NC(=O)Nc2ccc(-c3cn4c(n3)sc3cc(OCCN5CCOCC5)ccc34)cc2)no1.Cl.Cl [AC220, N-(5-tert-Butyl-isoxazol-3-yl)-N'-{4-[7-(2-morpholin-4-yl-ethoxy)imidazo[2,1-b][1,3]benzothiazol-2-yl]phenyl}urea Dihydrochloride]
AML patients [1]
  CR rate: 50%
  CRi rate: 45%

## COc1cc2c(N3CCN(C(=O)Nc4ccc(OC(C)C)cc4)CC3)ncnc2cc1OCCCN1CCCCC1 [MLN518]
KIT phosphorylation
  IC50: 170 nM

## CO[C@@H]1[C@H](N(C)C(=O)c2ccccc2)C[C@H]2O[C@]1(C)n1c3ccccc3c3c4c(c5c6ccccc6n2c5c31)C(=O)NC4 [PKC412, N-benzoylstaurosporine, reference compound]
[2]
  IC50: 16 ± 5 nM
HMC1.1 cells (KIT V560G)
  IC50: 354 ± 60 nM
HMC1.1 cells
  apoptosis/toxicity (caspase-3) in KIT-addicted HMC1.1 cells: potent toxicity
p-KIT in HMC1.1 cells
  p-KIT and downstream signaling inhibition in HMC1.1 cells: inhibited p-KIT and downstream signaling to a greater degree
[3]
  raw colony numbers, FLT3-ITD+ blasts: ca. 20
[4]
  raw colony numbers, FLT3 D835Y blasts: ca. 25
[5]; at 1,000 nM
  raw colony numbers, normal BM: zero in most PKC412-treated replicates
[5]; normal BM and SPB donors, up to 1,000 nM
  effect on normal hematopoietic colony formation (CFU and BFU): eliminates most normal hematopoietic colony forming potential at 1 mM; also recorded: dose-dependent inhibition of colony formation
Zebrafish embryos
  effect on zebrafish embryonic development / morphology: substantial morphological defects to the heart at 1 μM
[6]
  effect on mpo+ myeloid cells development in the PBI: statistically significant granulogenesis/myelosuppression; also recorded: statistically significant suppression of myelopoiesis
[7]
  effect on FLT3/ITD-induced mpo+ myeloid cells expansion: efficaciousness similar to Star 27
Ba/F3 Parental + IL3
  IC50: 243 ± 73 nM
Ba/F3 FLT3 ITD + D835F
  IC50: 9 ± 3 nM
Ba/F3 FLT3 ITD + A848P
  IC50: 9 ± 6 nM
AML patients [8]; combined with cytotoxic agents
  CR rate: 25%
  incomplete recovery of peripheral blood counts (CRi) rate: 20%
  patients developing grade 3/4 myelosuppression: over 90%
AML patients [8]; single agent Phase II trial
  complete remission (CR), single agent: failed to achieve a single complete remission

## CC(C)C[C@@H]1NC(=O)c2c1c1c3ccccc3n(CCCCN)c1c1[nH]c3ccccc3c21 [Star 12]
Purified FLT3 WT
  IC50: 524 ± 94 nM
FLT3
  inhibition of FLT3: 57%
KIT
  inhibition of KIT: < 10%
CSF1R
  inhibition of CSF1R: < 10%
PDGFRα
  inhibition of PDGFRα: < 10%
PDGFRβ
  inhibition of PDGFRβ: < 10%
